Patent US20240269104A1, “METHOD FOR TREATING PARKINSON'S DISEASE” (Olatec Therapeutics, Inc., priority 2021, published 2024)

Assays:
[1] = tested on: MPTP-injected-mouse model of PD; experiment: accelerating rotarod test after MPTP-acute administration; format: in vivo, C56BL/J mice
Protocol: MPTP (Sigma-Aldrich, St. Louis, MO) can be administered at two dose regimens: acute and sub-acute. For the acute regimen, MPTP was administered intraperitoneally (i.p.) four times in one day. Administrations were performed every two hours over an eight-hour period. For the subacute regimen, mice received a single i.p. administration of MPTP per day for five consecutive days. A 20 mg/kg free-base MPTP dose was used for every dose in both models. Sterile saline was used as the vehicle. Control mice were injected with saline solution using the same administration protocol and were defined as sham. Mice were sacrificed at different days after the first injection of MPTP. We used the acute protocol in C56BL/J mice to study dopamine neurodegeneration, inflammation, and motor deficits, whereas the subacute model was used to evaluate α-synuclein aggregation in the following examples. […]
The accelerating rotarod (Ugo Basile, Gemonio, ITALY) was used to evaluate locomotor function in mice subjected to the MPTP-acute administration. An accelerating program was selected to detect locomotor impairments associated to MPTP (Keshet et al, J Comp Neurol 504:690-701, 2007; Rui et al., Int J Neuropsychopharmacol., 2020). We used a rotarod device with a cylinder rod of three centimeters in diameter. The mice underwent a training period of three consecutive days prior to MPTP administration. In each training session, mice were subjected to run at four constant speeds (10 rpm, 20 rpm, 30 rpm, and 40 rpm) for 150 seconds at each speed. If mice fell during that time, they were put back in the rotarod immediately. On the testing day, we used an increased-speed program. Mice were placed on the rotarod device for 150 seconds at 30 rpm as warm up. Immediately after 150 seconds, the accelerating session started, and the speed increased from 30 rpm to 70 rpm for 500 seconds. Time to fall was recorded. Accelerating sessions were repeated three times with a resting interval of five minutes between sessions. Average time to fall per mouse was calculated and used as final measurement.
We then evaluated the effect of dapansutrile. To avoid overloading animals with fluid (which can lead to fatal heart failure), dapansutrile was administered through oral gavage at 200 mg/kg in water. Dapansutrile was given 30 minutes before the first injection of MPTP. Mice treated with saline were used as control. We also included a sham-group that received saline through intraperitoneal injections instead of MPTP. […]

TNFα = TNFα RNA in the brain by qPCR after MPTP; format: in vivo, mice; conditions: 200 mg/kg oral gavage; striatum piece, 24 hours after first MPTP injection
Protocol: Mice were treated dapansutrile or saline and injected with MPTP as described in Example 2.
24 hours after the first injection of MPTP, mice were sacrificed. A piece of brain, centered in the striatum, was taken from each mouse and frozen in liquid nitrogen. Samples were homogenized with Trizol lysis reagent (Thermo Fisher) following the manufacturer's protocol. 1 μg of RNA from each sample was reversely transcribed using the High-Capacity Reverse Transcription kit (Applied BioSystems).
Gene expression measures were performed through qPCR using SYBR Green master mix (Applied Biosystems) and recommended thermal cycling parameters: 1 cycle of polymerase activation for 10 min at 95° C. and 40 cycles of denaturalization for 15 sec at 95° C. plus annealing/extension for 1 min at 60° ° C. (capture). Gene levels of TNFα (a pro-inflammatory cytokine) were normalized to the relation ratio of expression of the GADPH gene following the ΔΔCT method. Primers sequences are detailed below. Final fold-change values were obtained by normalization with naïve condition.

[2] = tested on: white blood cells, lymphocytes, monocytes, and granulocytes; experiment: peripheral blood cell counts after MPTP-acute administration; format: in vivo, mice; conditions: 200 mg/kg, day seven after MPTP-acute
Protocol: Seven days after MPTP-acute administration, peripheral blood and spleen were isolated from each mouse, and hematological changes in the peripheral blood and cytokine production in the spleen were evaluated. […] White blood cells, lymphocytes, monocytes, and granulocytes were measured from the peripheral blood using a HemaTrue cell counter (Heska, Loveland, CO). Spleens were isolated and mechanically passed through a 70 μm cell strainer (ThermoFisher) in PBS. Cells were plated in a 96-well plate at a concentration of 200,000 cells/well in RPMI medium (Coring, New York, NY) with 10% FBS. After that, cells were stimulated with LPS at 1 μg/ml and 5 μg/ml. RPMI medium was used as control. After 72 hours, supernatant was isolated to measure the levels of IL-6. Cells were lysed with RIPA buffer (ThermoFisher) supplemented with protease inhibitor (ThermoFisher) to measure IL-1α levels. In both cases, 5-6 mice per group were used.

dopaminergic neurons = experiment: tyrosine hydroxylase (TH) immunostaining of the nigrostriatal pathway after MPTP; format: in vivo, mice; conditions: 200 mg/kg for 7 days; seven days after MPTP-acute
Protocol: To evaluate the effect of dapansutrile on dopaminergic neurons, mice were subjected to MPTP acute administration. Seven days after, when the levels of dopaminergic neurons are lower, the nigrostriatal pathway was evaluated by tyrosine hydroxylase (TH) immunostaining to assess the viability of dopaminergic neurons. Mice were perfused with 4% paraformaldehyde (Sigma-Aldrich) in PBS. Brains were removed and immersed in the same perfusion buffer overnight and then cryoprotected with 30% sucrose in 0.1M PBS at 4° C. After dehydration, samples were embedded in paraffin molds for sectioning. Coronal brain sections (4 μm thick) containing the St and SNpc were obtained and transferred to glass microscope slides. After antigen retrieval, slides were incubated with primary anti-TH antibody (1:2000, Abcam, Cambridge, UK) for 30 minutes at room temperature. TH antibody binding was detected using an anti-rabbit HRP-conjugated secondary polymer, followed by chromogenic visualization with diaminobenzidine (DAB, Cell Signaling). Hematoxylin counterstain was used to visualize nuclei. Processing of the samples was performed by Inotiv Boulder (Boulder, CO). Dopaminergic immunoreactivity in the St was calculated by measuring the integrated density by NIH ImageJ software. Stereological counting in the SNpc was performed by manual quantification of TH-positive neurons. Three sections per mice were used. Five mice were used for the sham+saline group, and seven mice were used for the MPTP group.

[3] = 200 mg/kg once a day, three days after MPTP-acute
[4] = 200 mg/kg oral gavage 30 minutes before first MPTP injection, day 3 after MPTP

For CS(=O)(=O)CCC#N [dapansutrile, 3-methanesulfonylpropionitrile], the “time to fall on accelerating rotarod versus MPTP+saline” value ([1]; 60 mg/kg once a day, three days after MPTP-acute) was “did not show any significant improvement”, the “mice that reached 8 cm/s on the rotarod” value [1, 3] was 7% and the “mice that reached the 7 cm/s speed on the rotarod” value [1, 3] was “approximately 50%”. The “time to fall on accelerating rotarod versus MPTP+saline” value [1, 3] was “doubling”, the “time to fall on accelerating rotarod versus sham mice” value [1, 3] was “nearly the same as the sham mice” and the “rotarod latency to fall, difference against sham group” value [1, 4] was “not significant differences”. The “time on the rotarod more than mice treated with water (latency to fall)” value [1, 4] was “around 90 seconds”, the “expression of TNFα RNA in the brain” value (TNFα) was “reduces the expression of TNFα RNA in the brain” and the “increase in number of circulating granulocytes” value [2] was 33%. The “increase in number of circulating lymphocytes” value [2] was 24%, the “TH-positive fibers and neurons versus control mice” value (dopaminergic neurons) was “no significant changes against control mice were observed” and the “density of TH-positive fibers in the striatum versus MPTP mice treated with saline” value (dopaminergic neurons) was “increase”. For the same compound, the “increase of TH-positive neurons in the SNpc” value (dopaminergic neurons) was 3 times.
